This is an account of results in patent publication US20040023884A1, “Biologically active peptides from functional domains of bactericidal/permeability-increasing protein and uses thereof” (priority 1993, published 2004).

Square brackets hold non-standard residues; d marks the D form. Ends that are not written are not given here. Peptide text beside a SMILES is read from it. 1Nal = N[C@@H](Cc1cccc2ccccc12)C(=O)O; 3Pal = N[C@@H](Cc1cccnc1)C(=O)O Some results are limits rather than exact numbers.

For test [1], the system named is E. coli 0111:B4 (smooth) bacteria. In words: Radial diffusion bactericidal assay, E. coli 0111:B4. Format: cell-based. The following applies: radial diffusion; PROBIT analysis; E. coli O111:B4 (smooth).
In a further test the test system is Staphylococcus aureus. In words: Radial diffusion bactericidal assay, Staphylococcus aureus. The note with it: radial diffusion; PROBIT analysis; S. aureus. The format is cell-based.
The subject of test [2] is rough mutant E. coli J5 bacteria. In words: Radial diffusion bactericidal assay, E. coli J5. The following applies: radial diffusion; PROBIT analysis; E. coli J5 (rough). The format is cell-based. The procedure: BPI proteolytic fragments produced according to Example 1 were screened for bactericidal effects using rough mutant E. coli J5 bacteria in a radial diffusion assay. Specifically, an overnight culture of E. coli J5 was diluted 1:50 into fresh tryptic soy broth and incubated for 3 hours at 37° C. to attain log phase growth of the culture. Bacteria were then pelleted at 3,000 rpm for 5 minutes in a Sorvall RT6000B centrifuge (Sorvall Instruments, Newton, Conn.). 5 mL of 10 mM sodium phosphate buffer (pH 7.4) was added and the preparation was re-pelleted. […] The bacteria were diluted to 4×10^6 CFU/mL in 10 mL of molten underlayer agarose (at approximately 45° C.) and inverted repeatedly to mix in 15 mL polypropylene tubes conventionally used for this purpose.
The entire contents of such tubes were then poured into a level square petri dish and distributed evenly by rocking the dish side-to-side. […] A series of wells were then punched into the hardened agarose using a sterile 3 mm punch attached to a vacuum apparatus. The punch was sterilized with 100% alcohol and allowed to air dry prior to use to avoid contaminating the bacterial culture.
5 or 10 μL of each of the BPI fragments were carefully pipetted into each well. As a negative control, dilution buffer (pH 8.3) was added to a separate well, and rBPI23 at concentrations of 5 μg/mL and 1 μg/mL were also added as positive controls. Each plate was incubated at 37° C. for 3 hours, and then 10 mL of molten overlayer agarose (at approximately 45° C.) was added into the level petri dish, allowed to harden and incubated overnight at 37° C. […] The bacterial zones were measured with a micrometer.

The test system of another test is Candida albicans. The format is cell-based.
A short description of test [3]: 3H-heparin binding assay (affinity and capacity). The note with it: for Heparin Capacity: heparin bound at saturation; for Kd: read-out: Heparin Affinity. The procedure:
Briefly, each fragment was added to wells of a 96-well microtiter plate having a polyvinylidene difluoride membrane (Immunobilon-P, Millipore, Bedford, Mass.) disposed at the bottom of the wells. […] Positive control wells contained varying amounts of rBPI23. […] DuPont-NEN, Wilmington, Del.) were made in the blocking buffer and incubated in the BPI peptide-containing wells for one hour at 4° C. The unbound heparin was aspirated and the wells were washed three times with blocking buffer, dried and removed for quantitation in a liquid scintillation counter (Model 1217, LKB, Gaithersburg, Md.). Although BSA in the blocking buffer did show a low affinity and capacity to bind heparin, this was considered physiologically irrelevant and the background was routinely subtracted from the test compound signal.

In the case of `CC[C@H](C)[C@H](NC(=O)[C@H](CC(C)C)NC(=O)[C@H](Cc1c[nH]c2ccccc12)NC(=O)CNC(=O)[C@@H](NC(=O)[C@H](CCCCN)NC(=O)[C@H](CO)NC(=O)[C@@H](N)CCCCN)C(C)C)C(=O)N[C@@H](CCC(N)=O)C(=O)N[C@@H](CC(C)C)C(=O)N[C@@H](Cc1ccccc1)C(=O)N[C@@H](Cc1cccc2ccccc12)C(=O)N[C@@H](CCCCN)C(=O)N[C@@H](Cc1cccc2ccccc12)C(=O)O` [BPI.146] (H-KSKVGWLIQLF[1Nal]K[1Nal]-OH; N-terminus and C-terminus assumed), in test [1], the “pmol added to well to achieve a 30 mm^2 bactericidal zone, E. coli O111:B4” value (“pmol added to well … E. coli O111:B4” below) is reported as “b (no detectable activity up to 5 μg/well)”. The “pmol added to well to achieve a 30 mm^2 bactericidal zone, S. aureus” value (“pmol added to well … S. aureus” for short) in the test with Staphylococcus aureus was “b (no detectable activity up to 5 μg/well)”. For the same molecule, the “pmol added to well to achieve a 30 mm^2 bactericidal zone, E. coli J5” value (“pmol added to well … E. coli J5” below) in test [2] was “b (no detectable activity up to 5 μg/well)”. In addition, in the test on Candida albicans, the “MIC C. alb” value was >50.00 µg/mL.
As to `CC(C)C[C@H](NC(=O)[C@H](Cc1ccccc1)NC(=O)[C@H](CCCNC(=N)N)NC(=O)[C@H](Cc1cccc2ccccc12)NC(=O)[C@H](Cc1cccc2ccccc12)NC(=O)[C@H](C)NC(=O)[C@H](CCCCN)NC(=O)[C@H](Cc1c[nH]c2ccccc12)NC(=O)[C@H](CCCCN)NC(=O)[C@H](CCCCN)NC(=O)[C@H](CC(C)C)NC(=O)[C@H](Cc1ccccc1)NC(=O)[C@H](CCCNC(=N)N)NC(=O)[C@H](Cc1cccc2ccccc12)NC(=O)[C@H](Cc1cccc2ccccc12)NC(=O)[C@H](C)NC(=O)[C@H](CCCCN)NC(=O)[C@H](Cc1c[nH]c2ccccc12)NC(=O)[C@@H](N)CCCCN)C(=O)N[C@@H](CCCCN)C(=O)O` [BPI.156] (H-KWKA[1Nal][1Nal]RFLKKWKA[1Nal][1Nal]RFLK-OH; N-terminus and C-terminus assumed), in the test on Candida albicans, the “MIC C. alb” value is >100.00 µg/mL.
Take `CC[C@H](C)[C@H](N)C(=O)N[C@@H](CCCCN)C(=O)N[C@H](C(=O)N[C@@H](CO)C(=O)NCC(=O)N[C@@H](CCCCN)C(=O)N[C@@H](Cc1c[nH]c2ccccc12)C(=O)N[C@@H](CCCCN)C(=O)N[C@@H](C)C(=O)N[C@@H](Cc1cccc2ccccc12)C(=O)N[C@@H](Cc1cccc2ccccc12)C(=O)N[C@@H](CCCNC(=N)N)C(=O)N[C@@H](Cc1ccccc1)C(=O)N[C@@H](CC(C)C)C(=O)N[C@@H](CCCCN)C(=O)N[C@@H](CCCCN)C(=O)N[C@@H](CO)C(=O)N[C@@H](CCCCN)C(=O)N[C@H](C(=O)NCC(=O)N[C@@H](Cc1c[nH]c2ccccc12)C(=O)N[C@@H](CC(C)C)C(=O)N[C@H](C(=O)N[C@@H](CCC(N)=O)C(=O)N[C@@H](CC(C)C)C(=O)N[C@@H](Cc1ccccc1)C(=O)N[C@@H](Cc1c[nH]cn1)C(=O)N[C@@H](CCCCN)C(=O)N[C@@H](CCCCN)C(=O)O)[C@@H](C)CC)C(C)C)[C@@H](C)CC` [BPI.158] (H-IKISGKWKA[1Nal][1Nal]RFLKKSKVGWLIQLFHKK-OH; N-terminus and C-terminus assumed): the “MIC C. alb” value in the test with Candida albicans is >100.00 µg/mL.
For the molecule IKISGAWAAQKRFLK [BPI.59], in test [1], the “pmol added to well … E. coli O111:B4” value is reported as “b (no detectable activity up to 5 μg/well)”. Also, the “pmol added to well … S. aureus” value in the test on Staphylococcus aureus is recorded as “b (no detectable activity up to 5 μg/well)”. Also, in test [3], the “Heparin Capacity” value came to 106.7 ng and the Kd worked out at 175 nM. For the same molecule, in test [2], the “pmol added to well … E. coli J5” value is listed as 3,718.00 pmol.
With “IKISGKAβ-(1-naphthyl)KAQKRFLK (IKISGK[1Nal]KAQKRFLK) [BPI.67]”, the “pmol added to well … E. coli O111:B4” value in test [1] was “b (no detectable activity up to 5 μg/well)”. The “pmol added to well … S. aureus” value in the test on Staphylococcus aureus is reported as “b (no detectable activity up to 5 μg/well)”. Further, in test [3], the “Heparin Capacity” value worked out at 250.4 ng and the Kd worked out at 108 nM. In addition, the “pmol added to well … E. coli J5” value in test [2] was 2,424.30 pmol.
“IKISGKAβ-(3-pyridyl)KAQKRFLK (IKISGK[3Pal]KAQKRFLK) [BPI.70]”: the “pmol added to well … E. coli O111:B4” value in test [1] is “b (no detectable activity up to 5 μg/well)”. In addition, the “pmol added to well … S. aureus” value with Staphylococcus aureus is “b (no detectable activity up to 5 μg/well)”. In test [3], the “Heparin Capacity” value worked out at 59.2 ng and the Kd was 145 nM. Moreover, the “pmol added to well … E. coli J5” value in test [2] is “b (no detectable activity up to 5 μg/well)”.
Regarding IKISGKFKAQKRFLK [BPI.61], the “pmol added to well … E. coli O111:B4” value in test [1] is reported as “b (no detectable activity up to 5 μg/well)”. Besides, the “pmol added to well … S. aureus” value in the test on Staphylococcus aureus is recorded as “b (no detectable activity up to 5 μg/well)”. Also, in test [3], the “Heparin Capacity” value was found to be 85.2 ng and the Kd is 58.3 nM. In addition, in test [2], the “pmol added to well … E. coli J5” value was 86,541.00 pmol.
Consider IKISGKWDKAQKRFLK [BPI.66], for which, in test [1], the “pmol added to well … E. coli O111:B4” value was “b (no detectable activity up to 5 μg/well)”. The “pmol added to well … S. aureus” value with Staphylococcus aureus is reported as “b (no detectable activity up to 5 μg/well)”. Besides, in test [3], the “Heparin Capacity” value was 111.6 ng and the Kd was 296 nM. For the same molecule, in test [2], the “pmol added to well … E. coli J5” value is reported as 5,846.50 pmol.
For IKISGKWKAKKRFLK [BPI.79], in test [1], the “pmol added to well … E. coli O111:B4” value was “b (no detectable activity up to 5 μg/well)”. Further, the “pmol added to well … S. aureus” value in the test with Staphylococcus aureus is listed as “b (no detectable activity up to 5 μg/well)”. Further, in test [3], the “Heparin Capacity” value was determined as 110.2 ng and the Kd came to 199 nM. The “pmol added to well … E. coli J5” value in test [2] is reported as 5,827.30 pmol.
Consider IKISGKWKAKQRFLK [BPI.56], for which the “pmol added to well … E. coli O111:B4” value in test [1] is “b (no detectable activity up to 5 μg/well)”. Also, the “pmol added to well … S. aureus” value in the test with Staphylococcus aureus is recorded as “b (no detectable activity up to 5 μg/well)”. In addition, in test [3], the “Heparin Capacity” value was found to be 135.5 ng and the Kd is 115 nM. Also, the “pmol added to well … E. coli J5” value in test [2] is 1,387.00 pmol.
For IKISGKWKAQKRAβ-(3-pyridyl)LK [BPI.72], in test [1], the “pmol added to well … E. coli O111:B4” value is given as “b (no detectable activity up to 5 μg/well)”. The “pmol added to well … S. aureus” value with Staphylococcus aureus is “b (no detectable activity up to 5 μg/well)”. Further, in test [3], the “Heparin Capacity” value is 102.8 ng and the Kd came to 145 nM. The “pmol added to well … E. coli J5” value in test [2] is recorded as 2,925.67 pmol.
For IKKRAISFLGKKWQK [BPI.75], the “pmol added to well … E. coli O111:B4” value in test [1] is reported as “b (no detectable activity up to 5 μg/well)”. For the same molecule, in the test on Staphylococcus aureus, the “pmol added to well … S. aureus” value was 9,508.60 pmol. In test [3], the “Heparin Capacity” value came out at 119.8 ng and the Kd was determined as 96 nM. Besides, in test [2], the “pmol added to well … E. coli J5” value is reported as 2,708.40 pmol.
For KSKVKWLIKLFFKFKSKVKWLIKLFFKF [BPI.101] the same measures were 3,631.70 pmol, 4,388.20 pmol, 210.9 ng, 1900 nM and 1,329.30 pmol.
Regarding KSKVKWLIKLFHKK [BPI.100], the “pmol added to well … E. coli O111:B4” value in test [1] was 7,342.90 pmol. Moreover, the “pmol added to well … S. aureus” value in the test on Staphylococcus aureus was “b (no detectable activity up to 5 μg/well)”. In test [3], the “Heparin Capacity” value is on record as 314.0 ng and the Kd came out at 2930 nM. Further, the “pmol added to well … E. coli J5” value in test [2] came out at 407.74 pmol.
The like results for KWKAQWRFLKKWKAQWRFLKKWKAQWRFLK [BPI.99] were, in that order, 60,037.52 pmol, 37,942,676.00 pmol, 971.4 ng, 9100 nM and 722.90 pmol.
In the case of QQGTAALQKELKRIK [BPI.1], the “pmol added to well … E. coli O111:B4” value in test [1] is “b (no detectable activity up to 5 μg/well)”. For the same molecule, the “pmol added to well … S. aureus” value in the test on Staphylococcus aureus was “b (no detectable activity up to 5 μg/well)”. Further, in test [3], the “Heparin Affinity” value is listed as “no binding” and the “Heparin Capacity” value is on record as “no binding”. In test [2], the “pmol added to well … E. coli J5” value is recorded as “b (no detectable activity up to 5 μg/well)”.
